What was measured:
[1] = tested on: amino acid response (AAR) pathway: eIF2α, ATF4; test: eIF2α phosphorylation and ATF4 protein levels in T cells (immunoblot); assay type: cell-based, mouse
Protocol: Whole cell lysates were prepared 4 hours-post TCR activation and immunoblotting was performed with the indicated antibodies. ATF4 protein is indicated by arrowhead. NS-non-specific band.
FIG. 12E is an illustration depicting immunoblot analysis of purified CD4^+ CD25^− T cells activated through the TCR for the indicated times without exogenous cytokines in the presence of either 10 nM MAZ1310 or 10 nM HF as indicated. Whole cells lysates were prepared during the timecourse and immunoblotting was performed.
Western blotting: Whole cell lysates were generated from T cells activated for the indicated times. For STAT3 and Smad2/3 western blots cells were harvested, washed in PBS and lysed in 50 mM Tris, pH 7.4, 0.1% SDS, 1% Triton-X100, 140 mM NaCl, 1 mM EDTA, 1 mM EGTA supplemented with protease inhibitors tablets (Roche-Germany), 1 mM NaF and 1 mM Na3VO4. For eIF2α and ATF4 western blots, cells were harvested as above and lysed in 50 mM Tris, pH 7.4, 2% SDS, 20% glycerol and 2 mM EDTA supplemented with protease and phosphatase inhibitors as above. All lysates were cleared via centrifugation and 15-30 μg of protein was resolved by SDS-PAGE. Protein was transferred to nitrocellulose membranes, blocked and blotted using specific antibodies. Antibodies used for western blot analysis were anti-phospho-Smad2, anti-STAT3 (pY705), anti-STAT3, anti-eIF2α^pS51, anti-eIF2α, anti-GCN2^pT898, anti-GCN2 (all from cell signaling technology, Danvers, Mass.). Anti-ATF4/CREB2 and anti-β-actin were purchased from Santa Cruz biotechnology (Santa Cruz, Calif.). HRP-conjugated secondary antibodies were all purchased from Sigma, with the exception of HRP-conjugated anti-armenian hamster antibody (Jackson Immunoresearch—West Grove, Pa.).
To address directly whether HF activates the AAR pathway, eIF2a phosphorylation and ATF4 protein levels in HF-treated T cells were examined. HF induced detectable eIF2α phosphorylation at 2.5 nM, and this effect plateaued at 5-10 nM HF (FIG. 12D). […] AAR activation was a general consequence of HF treatment: HF induced eIF2α phosphorylation not only in T cells activated in Th17-priming conditions, but also in resting naïve T cells and T cells activated in ThN, Th1, Th2 and iTreg polarizing conditions (FIG. 12F). […] (Rathmell, J. C., Elstrom, R. L., Cinalli, R. M. & Thompson, C. B. Activated Akt promotes increased resting T cell size, CD28-independent T cell growth, and development of autoimmunity and lymphoma. Eur J Immunol 33, 2223-32 (2003)). Thus, the rapid activation of the AAR pathway by HF underlies both its selective inhibition of Th17 differentiation and its effects on fibroblasts. (Pines, M. & Nagler, A. Halofuginone: a novel antifibrotic therapy. Gen Pharmacol 30, 445-50 (1998)).

[2] = tested on: human memory T cells (CD4+ CD45RO+); test: IL-17 and IFNγ expression by human memory T cells co-cultured with monocytes; assay type: cell-based; settings: 100 nM HF, 6 days
Protocol: FIG. 10F is an illustration depicting purified primary human memory T cells (CD4^+ CD45RO^+) activated by anti-CD3/anti-CD28 coated beads in co-culture with CD14^+ monocytes and treated with DMSO, 100 nM HF or 100 nM MAZ1310. T cells were expanded for 6 days and intracellular cytokine expression was determined following restimuation with PMA plus ionomycin in the presence of brefeldin A.
Human T cell isolation and activation: Resting CD4^+ T cells were isolated from PBMC of healthy human donors using Dynal CD4 Positive Isolation Kit (Invitrogen, Carlsbad, Calif.) as previously described (M. Sundrud et al., Blood 106, 3440, 2005). CD4^+ cells were further purified to obtain memory T cells by staining with PE-conjugated anti-human CD45RO-PE antibodies (BD Biosciences), and sorting on a FACSAria cytometer (BD Biosciences). Following purification, cells were greater than 99% CD4^+ CD45RO^+. […] T cells were expanded in the presence HF or MAZ1310 as indicated for 6 days and intracellular cytokine expression was determined by intracellular staining.
Detection of cytokine production: Cytokines secreted into media supernatant were measured using the mouse Th1/Th2 cytometric bead array (CBA, BD Pharmingen) in accordance with manufacturers instructions. […]

[3] = tested on: AAR pathway in splenocytes; test: In vivo activation of the AAR pathway in splenocytes of HF-injected mice; parameters: species or system C57B/6 mice; settings: 2.5 μg HF i.p., 6 hours post injection
Protocol: FIG. 20A is a graph depicting splenocytes from control- and HF-treated mice. C57B/6 mice were injected i.p. with vehicle (DMSO) or 2.5 μg HF. Spleens were harvested 6 hours post injection, red blood cells were lysed and total splenocytes were counted. Data are presented as mean cell counts±SD from 2 mice per group.
FIG. 20C is a graph depicting eIF2α expression in control- and HF-treated mice. Splenocytes from mice injected with DMSO or HF as above were harvested 6 hours post injection. Red blood cells were lysed and immunoblotting was performed on whole cell extracts for phosphorylated or total eIF2α as indicated.
FIG. 20D is a graph depicting the results of quantitative real-time PCR (qPCR) experiments performed for AAR-associated gene expression (Asns, Gpt2, eIF4Ebp1) using cDNA generated from splenocytes of mice injected with DMSO or HF as above. Expression of AAR-associated genes were normalized to Hprt levels and data are presented as mean relative expression from duplicate samples±SD.
Studies were conducted to evaluate the effect of HF treatment in mice.

## O=C(CC1NCCCC1O)Cn1cnc2cc(Br)c(Cl)cc2c1=O (racemic) [HF, 7-bromo-6-chloro-3-[3-(3-hydroxy-2-piperidinyl)-2-oxopropyl]-4(3H)-quinazolinone]
[1]; 10 nM HF
  time at which eIF2α phosphorylation reached maximum levels: ≤ 2 h
  time until which ATF4 protein continued to accumulate: 4 h
[1]; 4 hours post TCR activation
  concentration at which eIF2α phosphorylation plateaued: 5 to 10 nM
  concentration giving highest ATF4 expression levels: 5 to 10 nM
  concentration inducing detectable eIF2α phosphorylation: 2.5 nM
  higher concentrations at which ATF4 expression levels were reduced: 20 to 40 nM
[2]
  IFNγ expression by human T cells, in words: essentially unaffected
  percentage of human T cells expressing IL-17 and amount of IL-17 produced, in words: greatly reduced
[3]
  eIF2α phosphorylation and AAR-associated gene expression in splenocytes, in words: rapidly activates eIF2α phosphorylation and AAR-associated gene expression
